Data reported in US20220310200A1, “METHODS FOR IDENTIFYING AND USING DISEASE-ASSOCIATED ANTIGENS” (KIROMIC BIOPHARMA, INC., priority 2019, published 2022).
No end group written: not given here.

Test system: Autologous DCs pulsed with the IsoMSLN peptide
Assay: DC-T-cell co-culture immunogenicity, 4-hour Calcein-AM-release cytotoxicity assay
Format: cell-based
Conditions: E/T ratio 10:1 and 5:1; peripheral blood mononuclear cells of a healthy individual; control unrelated HIV peptide; FIG. 5
Experimental: The peptide unique to the isoform variant (i.e., PQAPRRPL (SEQ ID NO: 19)) was then tested for immunogenicity using a dendritic cell (DC)- T-cell co-culture system as previously described (Chiriva-Internati et al. Blood. 2002 Aug. 1;100(3):961-5). A standard 4-hour Calcein-AM-release assay was performed to determine the cytotoxic activity of the IsoMSLN peptide stimulated T cells. Autologous DCs pulsed with the IsoMSLN peptide or with an unrelated peptide (derived from HIV), were used as target cells (at an effector-target cell [E/T] ratio of 10:1 and 5:1).

**Q.** Which “immunogenicity (cytotoxic activity of peptide stimulated T cells, percent specific killing)” value does the source give for PQAPRRPL [PQAPRRPL] here?
**A.** immunogenic
